# From patent publication US20210292807A1, “METHOD FOR TESTING ANTIMICROBIAL SUSCEPTIBILITY” (priority 2017, published 2021)
# Like-named read-outs stand apart in the source and are kept apart here.
# What was measured:
# Staphylococcus aureus [1] = test: Broth microdilution (BMD) MIC of Staphylococcus aureus isolates; type: cell-based
# Text: The acoustic flow cytometry assisted method of the present invention was employed essentially as described in the previous working examples to determine susceptibility of Staphylococcus aureus to both cefoxitin and oxacillin. Susceptibility classification into S/NS and quantitative MIC values obtained using the acoustic flow cytometry assisted method were compared to results obtained using the conventional broth microdilution (BMD) method. Results are shown in Table 4 (Panels A and B) below and in FIGS. 9-12.
# Staphylococcus aureus [2] = test: Acoustic flow cytometry-assisted susceptibility test (FAST) of Staphylococcus aureus isolates; type: cell-based; set-up: MIC dilution at which susceptibility-associated signature is observed by AFC: unit not given beside the values
# Procedure: The material and methods utilized are briefly outlined herein below. The method used was similar to that outlined in the earlier examples albeit adjusted to allow for 3 hour incubation of Staphylococcus aureus to account for longer doubling times of Staphylococcus aureus relative to K. pneumoniae used in the previous examples.
# Events were acquired by forward scatter and BL1 (515 nm-545 nm) using the Attune with voltages and thresholding set as follows: Forward Scatter Voltage: 3050; Forward Scatter Threshold: 3×1000 AND; Side Scatter Voltage: 2950; Side Scatter Threshold: IGNORE; BL1 Voltage: 1500; BL1 Threshold: 1×1000 AND.
# Nine mL of MHB was aliquoted into twelve, 50 mL Falcon tubes. Each tube was labelled with the required final test concentration of antibiotic. […] Tubes were transferred to a 35° C. incubator to pre-warm.
# One 1 mL of the overnight bacterial suspension was transferred into a 1.5 mL microcentrifuge tube and centrifuge at 7,800×g for about 5 minutes. The supernatant was discarded, and the pellet re-suspended in 1 mL of 0.1 μm filtered HBSS. This step was optionally repeat.
# About 900 μL of HBSS was dispended into three 1.5 mL tubes—two clear tubes and one amber tube. About 100 μL of the bacterial suspension was inoculated into the first tube (clear) and serially dilute to reach 1:1000 by the third tube (amber). About 1 μl of SYTO 9 (5 μM final concentration) was added to the third tube. The dye was incubated, protected from light, for at least 5 minutes (individual sample types were optionally required with longer incubations) and then the Stained Control on the Attune acoustic flow cytometer instrument was read
# The event density (events/μL) from your stained control aliquots was used to calculate the inoculum volume required to produce a 5.5×10^5 bacteria mL-1 in 10 mL of MHB. For example, (400 events/A)/(10 mL×550000)=7.3 μL, rounded up to the closest 10 μL.
# The required volume of bacterial suspension was added from the overnight culture into each 50 ml tube with 9 ml of preheated MHB. Optionally incubate with shaking and protected from light, at 100 RPM at 35° C. for 60 minutes.
# MHB (0.1 μm filtered) was used to dilute the antibiotics in this preparation. About one aliquot of antibiotic was removed from the −20° C. freezer and equilibrated to room temperature by ambient heat exchange, and diluted to reach a range of working stock concentrations that were are ten times the desired test concentrations.
# Once the 60-minute incubation of bacterial suspension was complete, about 1 mL of 10× antibiotic stocks were added to tubes containing bacterial suspensions to reach final desired test concentrations (1 ml antibiotic and total volume 10 ml). The 50 mL tubes were returned to the incubator and incubated, by shaking at 100 RPM at 35° C., for a further 3 hours.
# After 3 hours, about 1 mL suspension was harvested from each tube and transferred to a 1.5 mL clear microcentrifuge tube (marked with the corresponding antibiotic concentration), then centrifuge at 7,800×g for 5 minutes. The supernatant discarded and the pellet resuspended in 1 mL of 0.1 μm filtered HBSS. This wash step was optionally repeated.
# Using the computer connected to the Attune, new samples were created ready for the collection of data. That the following parameters were set: Sensitivity: High Sensitivity; Flow Rate: 25 μL/minute; Acquisition Volume: 125 μL; Events Collected: No less than 20,000 from all gates, Time: 1 minute.
# About 899 μL HBSS was dispensed into one 1.5 mL amber tube per sample. About 100 μL of suspension per tube was added to achieve a 1 in 10 dilution. About 1 μl of SYTO 9 was added to each tube and the tube vortexed for no more than 2 seconds (over vortexing can lead to bacterial clustering and/or attachment to tube walls).
# Samples were placed on the SIP and acquired, in technical triplicate, as per the parameters outlined above. […]
# Klebsiella isolates = test: Acoustic flow cytometry-assisted susceptibility test (FAST), MICFAST and S/NS, Klebsiella isolates; type: cell-based, Klebsiella pneumoniae, Klebsiella oxytoca; set-up: MICBMD / MICFAST data point (FIG. 8): unit not given here; conditions: 10 of 14 K. pneumoniae isolates
# Procedure: A 1 mL aliquot of bacterial suspension was centrifuged, washed and resuspended in 1 mL filtered Hank's Buffered Salt Solution (HBSS; comprising about 0.137 M NaCl, about 5.4 mM KCl, about 0.25 mM Na2HPO4, about 0.1 g Glucose, about 0.44 mM KH2PO4, 1.3 mM CaCl2), 1.0 mM MgSO4, about 1.3 mM CaCl2), 1.0 mM MgSO4, and about 4.2 mM NaHCO3) and diluted in series (e.g., in a 1:10 serial dilution) to a final 1:1000 dilution.
# One μL (microliter) of SYTO 9 stain (e.g., ThermoFisher Scientific) working stock solution was added to the final dilution at a final concentration of 5 μM and incubated for 5 minutes before counting bacterial events by acoustic flow cytometer (AFC) (Attune, ThermoFisher, Eugene, Oreg., USA), which was used to prepare a standardised inoculum density for susceptibility testing.
# An aliquot of bacterial suspension was added to 50 mL centrifuge tubes (Corning, N.Y.) containing 9 mL of pre-warmed (37° C.) filtered MHB to produce a final density of 5×10^5-1×10^6 bacteria per mL. This suspension was incubated at 37° C. with shaking at 100 RPM for 30 minutes to obtain an actively dividing culture. An aliquot of antibiotic working solution from the previously described dilution series (appropriate to the concentration tested) was then added to each tube before a further 30-minute incubation with shaking, during which time a microbroth dilution (MBD) plate was prepared for overnight incubation at 37° C. as previously described in Clinical and Laboratory Standards Institute (2015) Performance Standards for Antimicrobial Susceptibility Testing: Informational Supplement. CLSI document M100-S25. Clinical and Laboratory Standards Institute, 950, West Valley Road, Suite 2500, Wayne, Pa., 19087, USA.
# One millilitre of bacterial suspension from each antibiotic concentration was harvested by centrifugation at 7800×g for 5 minutes, washed and diluted 1:10 in filtered HBSS in a light-impermeable microcentrifuge tube, then stained with SYTO 9 stain at a final concentration of 5 μM, and incubated for 5 min before AFC sampling. Hoechst 33342 dye (NucBlue, Thermo Fisher Scientific, Eugene, Oreg., USA) and a SYTO 9/propidium iodide (PI) combination (Thermo Fisher Scientific) were used in a series of replicate experiments.
# The acoustic flow cytometer employed was Attune acoustic flow cytometer (Thermo Fisher Scientific), having installed therein a 488 nm blue laser with a 530/30 nm filter on the photomultiplier tube for measuring fluorescence of cells assayed. Alternatively, the Attune NxT acoustic flow cytometer (Thermo Fisher Scientific) can be employed. AFC was calibrated at the beginning of each acquisition session using fluorescently labelled size calibration beads, in accordance with the manufacturer's instructions (ThermoFisher Scientific). The AFC settings were as follows: Forward Scatter (FSC) voltage 3100, FSC threshold 4×1000 AND, blue laser 1 (BL1—530/30 nm) voltage 1900, BL1 threshold 1×1000 AND, high sensitivity, flow rate 25 μL/minute, and an acquisition volume of 125 μL. Acquisition was halted after either collection of 20,000 events across all gates, or after 3 minutes, with each sample acquired in technical triplicate.
# Collected data was exported in the FCS 3.0 file format and analysed in Flow v10.0 (FlowJo LLC, Ashland, Oreg., USA) by a single user, blinded to the MIC results by BMD (MICBMD).
# Subsequent to quantitative MICFAST determination, the acoustic flow cytometer data were re-analysed in silico to produce a limited sub-set for qualitative susceptibility determination. The six antibiotic dilutions (0 mg/L, 0.25 mg/L, 1 mg/L, 2 mg/L, 4 mg/L and 16 mg/L) most relevant to qualitative susceptibility assessment were used. In silico analysis was restricted to the first technical triplicate of each recorded sample. Gating strategies remained consistent, with the addition of a gate restricting analysis to only those events recorded in the first 60 seconds of acquisition.
# K. pneumoniae = test: AFC susceptibility-associated signature for ceftriaxone and gentamicin (FIG. 19); type: cell-based, Klebsiella pneumoniae
# Text: FIG. 19 provides graphical and pictorial representations showing rapid determination of susceptibly of bacteria to antimicrobial using the using the AFC-assisted susceptibility testing method of the invention.
# This example sets out to investigate utility of the AFC-assisted susceptibility testing method of the invention as a clinical test and tool which can inform use antimicrobial choice in the early hours of sepsis presentation, e.g., by applying the AFC-assisted susceptibility testing method directly to blood cultures.
# [3] = S. aureus isolate ATCC 29213, MSSA
# [4] = S. aureus isolate W0096111, MSSA
# [5] = S. aureus isolate W0226111, MSSA
# [6] = S. aureus isolate W0236111, MSSA
# [7] = S. aureus isolate W0296111, MSSA
# [8] = S. aureus isolate W0816111, MSSA
# [9] = S. aureus isolate W0866111, MRSA
# [10] = S. aureus isolate W6496111, MSSA
# [11] = S. aureus isolate W9196111, MSSA
# [12] = S. aureus isolate W9346111, MRSA
# [13] = S. aureus isolate W . . . 6111, MRSA
# [14] = S. aureus isolate WACC 98, MRSA
compound,measurement,setting,value
"Cc1onc(-c2ccccc2)c1C(=O)N[C@@H]1C(=O)N2[C@@H]1SC(C)(C)[C@@H]2C(=O)O [Oxacillin, oxacillin]",MIC (BMD),Staphylococcus aureus [1]; [3],0.25 µg/mL
same,MIC (BMD),Staphylococcus aureus [1]; [4],0.25 µg/mL
same,MIC (BMD),Staphylococcus aureus [1]; [5],0.25 µg/mL
same,MIC (BMD),Staphylococcus aureus [1]; [6],0.25 µg/mL
same,MIC (BMD),Staphylococcus aureus [1]; [7],0.25 µg/mL
same,MIC (BMD),Staphylococcus aureus [1]; [8],0.25 µg/mL
same,MIC (BMD),Staphylococcus aureus [1]; [9],16 µg/mL
same,MIC (BMD),Staphylococcus aureus [1]; [10],1 µg/mL
same,MIC (BMD),Staphylococcus aureus [1]; [11],0.25 µg/mL
same,MIC (BMD),Staphylococcus aureus [1]; [12],32 µg/mL
same,MIC (BMD),Staphylococcus aureus [1]; [13],8 µg/mL
same,MIC (BMD),Staphylococcus aureus [1]; [14],256 µg/mL
same,MIC dilution at which susceptibility-associated signature is observed by AFC,Staphylococcus aureus [2]; S. aureus ATCC 29213,0.25
same,MIC dilution at which susceptibility-associated signature is observed by AFC,Staphylococcus aureus [2]; S. aureus WACC 98,256
same,MIC (FAST),Staphylococcus aureus [2]; [3],≤ 1 µg/mL
same,MIC (FAST),Staphylococcus aureus [2]; [4],≤ 1 µg/mL
same,MIC (FAST),Staphylococcus aureus [2]; [5],≤ 1 µg/mL
same,MIC (FAST),Staphylococcus aureus [2]; [6],≤ 1 µg/mL
same,MIC (FAST),Staphylococcus aureus [2]; [7],≤ 1 µg/mL
same,MIC (FAST),Staphylococcus aureus [2]; [8],≤ 1 µg/mL
same,MIC (FAST),Staphylococcus aureus [2]; [9],16 µg/mL
same,MIC (FAST),Staphylococcus aureus [2]; [10],1 µg/mL
same,MIC (FAST),Staphylococcus aureus [2]; [11],≤ 1 µg/mL
same,MIC (FAST),Staphylococcus aureus [2]; [12],32 µg/mL
same,MIC (FAST),Staphylococcus aureus [2]; [13],16 µg/mL
same,MIC (FAST),Staphylococcus aureus [2]; [14],256 µg/mL
same,events remaining in Unexposed Cell Morphotype gate (FIG. 14B),"Staphylococcus aureus [2]; clinical methicillin resistant S. aureus WACC 98, at EUCAST breakpoint 8 mg/L",above the 10% threshold for MICFAST
same,events remaining in Unexposed Cell Morphotype gate (FIG. 14A),"Staphylococcus aureus [2]; control methicillin susceptible S. aureus ATCC 25912, oxacillin concentration range",remains below the 10% MICFAST threshold
CO/N=C(\C(=O)N[C@@H]1C(=O)N2C(C(=O)O)=C(CSc3nc(=O)c(=O)[nH]n3C)CS[C@H]12)c1csc(N)n1 [ceftriaxone],MICBMD / MICFAST data point (FIG. 8),Klebsiella isolates,256
same,MIC,"K. pneumoniae; Klebsiella pneumoniae, K. pneumoniae susceptible type strain SSCC 43358, read-out: isolate's MIC (FIG. 19A)",0.25 µg/mL
gentamicin,MIC,K. pneumoniae; K. pneumoniae isolate 244606,1 µg/mL
